The target of one test is A-type [Kv1.4] (Homo sapiens, UniProt P22459). The settings on record: 300 μM; A-type [Kv1.4] selectively expressed in xenopus oocytes; cited from earlier work.
The test system of a further test is A-type K+ ion channel. In words: Data assimilation of CA1 neuron current clamp recordings: predicted charge through A-type K+ channel before and after drug. It is filed as cell-based, rodent.
The next test has as its target T1, A-type [Kv4.2] (Homo sapiens, UniProt Q9NZV8).
T1 sequence (Q9NZV8 1-630): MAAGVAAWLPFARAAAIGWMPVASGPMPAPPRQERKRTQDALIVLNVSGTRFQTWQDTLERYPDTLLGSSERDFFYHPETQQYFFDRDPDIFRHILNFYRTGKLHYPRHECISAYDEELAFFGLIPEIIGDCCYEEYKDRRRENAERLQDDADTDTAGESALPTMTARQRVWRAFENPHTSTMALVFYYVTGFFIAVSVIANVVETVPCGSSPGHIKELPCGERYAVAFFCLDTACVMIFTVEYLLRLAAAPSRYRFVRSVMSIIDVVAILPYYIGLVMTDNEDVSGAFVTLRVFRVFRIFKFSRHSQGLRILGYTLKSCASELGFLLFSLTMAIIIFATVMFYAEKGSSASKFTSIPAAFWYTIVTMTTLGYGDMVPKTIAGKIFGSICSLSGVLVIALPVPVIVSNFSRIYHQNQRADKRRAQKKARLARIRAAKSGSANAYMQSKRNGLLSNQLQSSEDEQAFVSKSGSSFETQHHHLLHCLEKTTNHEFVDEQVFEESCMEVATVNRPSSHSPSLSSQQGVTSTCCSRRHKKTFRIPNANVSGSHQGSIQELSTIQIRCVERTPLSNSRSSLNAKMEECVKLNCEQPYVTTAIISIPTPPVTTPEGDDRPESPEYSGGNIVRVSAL
Particulars: 300 μM; A-type [Kv4.2] selectively expressed in xenopus oocytes; cited from earlier work.

A further test addresses BK [α + β1] (Homo sapiens, UniProt Q12791). Particulars: 100 nM; BK [α + β1] selectively expressed in HEK293 cells; cited from earlier work.
Another test deals with BK [α + β3] (Homo sapiens, UniProt Q12791). The settings on record: 100 nM; BK [α + β3] selectively expressed in HEK293 cells; cited from earlier work.
In the next test the test system is SK ion channel. As to the kind of experiment: Data assimilation of CA1 neuron current clamp recordings: predicted charge through SK channel before and after drug. The settings on record: 100 nM IbTX, 2000 ms prediction window, FIG. 12A. In kind it is cell-based, rodent.
The next test addresses BK [α + β4] (Homo sapiens, UniProt Q12791). The settings on record: 100 nM; BK [α + β4] selectively expressed in HEK293 cells; cited from earlier work.
The test system of another test is NaT ion channel. As to the kind of experiment: Data assimilation of CA1 neuron current clamp recordings: predicted charge through NaT channel before and after drug. It is filed as cell-based, rodent. The settings on record: 100 nM IbTX, 2000 ms prediction window, FIG. 12A.
The next test has as its system K ion channel. As to the kind of experiment: Data assimilation of CA1 neuron current clamp recordings: predicted charge through K channel before and after drug. Particulars: 100 nM IbTX, 2000 ms prediction window, FIG. 12A. It is filed as cell-based, rodent.
The target in the next test is T2, BK ion channel (Homo sapiens, UniProt Q12791).
T2 construct: endogenous in cells; host or cells: hippocampal CA1 neuron
In words: Data assimilation of CA1 neuron current clamp recordings: predicted charge through BK channel before and after drug. It is filed as cell-based, rodent.

Another test has as its target BK [α subunit only] (Homo sapiens, UniProt Q12791). Particulars: 100 nM; BK [α subunit only] selectively expressed in HEK293 cells; cited from earlier work.
The next test has as its target T3, HCN2 (Homo sapiens, UniProt Q9UL51).
T3 sequence (Q9UL51 1-889): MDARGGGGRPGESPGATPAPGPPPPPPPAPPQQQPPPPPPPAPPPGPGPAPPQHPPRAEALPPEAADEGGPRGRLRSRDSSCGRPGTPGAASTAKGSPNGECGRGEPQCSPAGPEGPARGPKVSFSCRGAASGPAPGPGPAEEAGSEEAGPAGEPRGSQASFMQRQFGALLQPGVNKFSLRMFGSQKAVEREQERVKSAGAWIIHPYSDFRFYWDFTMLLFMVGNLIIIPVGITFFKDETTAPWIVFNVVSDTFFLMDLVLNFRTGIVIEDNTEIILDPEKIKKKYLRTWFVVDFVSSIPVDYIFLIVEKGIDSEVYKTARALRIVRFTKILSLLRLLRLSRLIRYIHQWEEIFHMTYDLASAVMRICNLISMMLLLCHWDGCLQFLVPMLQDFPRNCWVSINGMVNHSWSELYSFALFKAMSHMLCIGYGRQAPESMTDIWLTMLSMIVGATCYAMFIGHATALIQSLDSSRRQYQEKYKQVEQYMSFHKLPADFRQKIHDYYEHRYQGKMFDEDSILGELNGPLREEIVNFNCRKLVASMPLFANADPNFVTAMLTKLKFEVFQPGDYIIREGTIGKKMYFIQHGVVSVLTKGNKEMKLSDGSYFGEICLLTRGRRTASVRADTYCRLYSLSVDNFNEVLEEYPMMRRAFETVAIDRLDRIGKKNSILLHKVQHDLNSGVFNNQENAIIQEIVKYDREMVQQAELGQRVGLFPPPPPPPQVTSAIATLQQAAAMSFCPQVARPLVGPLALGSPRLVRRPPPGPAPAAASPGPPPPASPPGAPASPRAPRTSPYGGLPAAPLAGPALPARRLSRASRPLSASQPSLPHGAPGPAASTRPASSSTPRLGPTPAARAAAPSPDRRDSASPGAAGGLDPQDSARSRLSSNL
The settings on record: 50 μM; HCN2 selectively expressed in xenopus oocytes; cited from earlier work.

In another test the target is T4, HCN1 (Homo sapiens, UniProt O60741).
T4 sequence (O60741 1-890): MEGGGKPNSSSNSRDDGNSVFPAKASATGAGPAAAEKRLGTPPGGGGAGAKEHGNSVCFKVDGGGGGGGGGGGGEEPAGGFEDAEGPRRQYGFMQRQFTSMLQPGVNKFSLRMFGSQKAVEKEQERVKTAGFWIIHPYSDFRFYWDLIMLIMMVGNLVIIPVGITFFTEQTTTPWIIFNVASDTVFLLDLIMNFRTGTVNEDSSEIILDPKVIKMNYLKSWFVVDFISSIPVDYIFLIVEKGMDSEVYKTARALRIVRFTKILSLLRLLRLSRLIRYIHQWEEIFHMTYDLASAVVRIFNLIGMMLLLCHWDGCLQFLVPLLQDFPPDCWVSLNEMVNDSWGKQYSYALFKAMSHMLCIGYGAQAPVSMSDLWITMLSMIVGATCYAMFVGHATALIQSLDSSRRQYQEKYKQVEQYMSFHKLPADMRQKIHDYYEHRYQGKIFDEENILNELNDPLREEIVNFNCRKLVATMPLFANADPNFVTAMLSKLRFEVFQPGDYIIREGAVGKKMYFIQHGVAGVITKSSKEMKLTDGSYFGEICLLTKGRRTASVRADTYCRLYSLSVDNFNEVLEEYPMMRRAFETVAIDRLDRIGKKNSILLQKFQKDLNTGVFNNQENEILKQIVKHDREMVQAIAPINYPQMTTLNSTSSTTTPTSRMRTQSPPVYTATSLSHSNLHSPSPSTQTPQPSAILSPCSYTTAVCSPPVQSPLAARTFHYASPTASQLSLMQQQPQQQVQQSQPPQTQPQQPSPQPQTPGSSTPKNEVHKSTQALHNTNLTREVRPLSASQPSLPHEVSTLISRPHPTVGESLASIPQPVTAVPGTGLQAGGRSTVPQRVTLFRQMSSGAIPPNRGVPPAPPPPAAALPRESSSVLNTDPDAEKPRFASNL
The settings on record: 50 μM; HCN1 selectively expressed in HEK293 cells; cited from earlier work.

T2 sequence (Q12791 whole entry): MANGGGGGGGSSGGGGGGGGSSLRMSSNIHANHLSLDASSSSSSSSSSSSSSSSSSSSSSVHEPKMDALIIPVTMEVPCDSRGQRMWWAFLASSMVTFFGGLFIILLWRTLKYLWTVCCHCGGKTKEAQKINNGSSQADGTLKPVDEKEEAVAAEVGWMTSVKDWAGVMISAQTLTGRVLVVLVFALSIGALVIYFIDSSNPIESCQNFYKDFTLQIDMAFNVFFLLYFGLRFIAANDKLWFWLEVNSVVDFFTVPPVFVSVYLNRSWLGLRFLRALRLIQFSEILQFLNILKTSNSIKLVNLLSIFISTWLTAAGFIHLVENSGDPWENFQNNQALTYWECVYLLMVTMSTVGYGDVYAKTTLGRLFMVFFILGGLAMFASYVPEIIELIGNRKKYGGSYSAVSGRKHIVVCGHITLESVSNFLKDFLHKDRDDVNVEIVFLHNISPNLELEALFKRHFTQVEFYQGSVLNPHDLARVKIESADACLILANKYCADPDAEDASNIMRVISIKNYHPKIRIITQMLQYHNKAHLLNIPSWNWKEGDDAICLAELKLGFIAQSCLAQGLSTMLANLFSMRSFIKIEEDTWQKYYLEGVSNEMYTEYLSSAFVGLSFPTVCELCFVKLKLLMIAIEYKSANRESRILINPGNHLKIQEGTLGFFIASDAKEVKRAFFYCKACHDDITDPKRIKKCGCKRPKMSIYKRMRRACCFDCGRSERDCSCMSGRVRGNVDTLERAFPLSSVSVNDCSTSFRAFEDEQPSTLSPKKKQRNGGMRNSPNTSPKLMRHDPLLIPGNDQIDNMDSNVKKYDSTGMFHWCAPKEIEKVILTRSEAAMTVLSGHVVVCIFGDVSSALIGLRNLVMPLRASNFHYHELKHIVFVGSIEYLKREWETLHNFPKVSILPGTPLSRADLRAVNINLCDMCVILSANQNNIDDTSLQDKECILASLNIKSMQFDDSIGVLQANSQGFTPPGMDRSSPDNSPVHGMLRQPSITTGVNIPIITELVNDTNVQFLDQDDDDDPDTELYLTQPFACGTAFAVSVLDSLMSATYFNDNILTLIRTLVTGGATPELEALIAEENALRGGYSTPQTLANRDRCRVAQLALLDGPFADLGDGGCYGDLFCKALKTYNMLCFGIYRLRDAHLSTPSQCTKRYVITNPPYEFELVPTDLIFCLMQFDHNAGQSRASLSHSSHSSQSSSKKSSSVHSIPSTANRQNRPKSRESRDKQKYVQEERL
Sequence of A-type [Kv1.4] (P22459 whole entry): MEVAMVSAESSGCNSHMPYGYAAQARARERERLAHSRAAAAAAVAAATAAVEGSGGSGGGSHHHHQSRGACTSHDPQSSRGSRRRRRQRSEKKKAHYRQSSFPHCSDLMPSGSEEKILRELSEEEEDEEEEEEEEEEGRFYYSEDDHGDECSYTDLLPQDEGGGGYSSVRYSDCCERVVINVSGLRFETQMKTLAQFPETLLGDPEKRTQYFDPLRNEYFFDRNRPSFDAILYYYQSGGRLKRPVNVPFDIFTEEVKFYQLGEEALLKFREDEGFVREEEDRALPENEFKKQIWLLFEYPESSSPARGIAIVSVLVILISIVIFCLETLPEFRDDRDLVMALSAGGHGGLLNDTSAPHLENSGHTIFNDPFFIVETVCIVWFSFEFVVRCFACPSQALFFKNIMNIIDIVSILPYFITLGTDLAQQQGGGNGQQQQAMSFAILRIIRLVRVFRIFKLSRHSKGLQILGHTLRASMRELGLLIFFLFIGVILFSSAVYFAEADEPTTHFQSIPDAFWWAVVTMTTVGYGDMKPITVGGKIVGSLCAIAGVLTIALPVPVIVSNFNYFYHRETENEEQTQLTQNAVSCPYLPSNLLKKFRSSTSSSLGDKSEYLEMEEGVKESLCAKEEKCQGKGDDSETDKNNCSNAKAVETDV
Sequence of BK [α + β3] (Q12791 whole entry): as the sequence (Q12791 whole entry) above
Sequence of BK [α + β3] (Q9NPA1 whole entry partner): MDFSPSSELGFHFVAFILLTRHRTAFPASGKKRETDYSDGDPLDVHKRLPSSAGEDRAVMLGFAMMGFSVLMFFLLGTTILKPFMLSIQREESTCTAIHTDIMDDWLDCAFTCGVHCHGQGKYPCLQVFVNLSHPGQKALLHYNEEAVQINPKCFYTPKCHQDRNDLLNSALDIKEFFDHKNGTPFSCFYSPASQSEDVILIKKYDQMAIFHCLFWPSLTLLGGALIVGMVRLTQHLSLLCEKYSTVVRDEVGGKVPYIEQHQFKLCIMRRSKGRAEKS
Sequence of BK [α subunit only] (Q12791 whole entry): as the sequence (Q12791 whole entry) above
Sequence of BK [α + β1] (Q12791 whole entry): as above
Sequence of BK [α + β1] (Q16558 whole entry partner): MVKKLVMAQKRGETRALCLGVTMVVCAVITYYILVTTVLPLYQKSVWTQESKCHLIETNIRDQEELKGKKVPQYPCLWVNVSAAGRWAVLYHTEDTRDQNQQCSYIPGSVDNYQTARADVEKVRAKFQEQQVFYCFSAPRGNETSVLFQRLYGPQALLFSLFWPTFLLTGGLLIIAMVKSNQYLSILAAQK
Sequence of BK [α + β4] (Q12791 whole entry): as the sequence (Q12791 whole entry) above
Sequence of BK [α + β4] (Q86W47 whole entry partner): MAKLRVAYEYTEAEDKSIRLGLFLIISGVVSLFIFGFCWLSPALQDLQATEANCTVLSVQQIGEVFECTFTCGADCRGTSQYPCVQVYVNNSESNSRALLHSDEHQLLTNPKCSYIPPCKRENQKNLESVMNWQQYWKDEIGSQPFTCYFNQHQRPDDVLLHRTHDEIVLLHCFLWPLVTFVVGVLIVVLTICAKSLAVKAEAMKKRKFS

As to `Nc1ccncc1` [4-AP, 4-aminopyridine], the “EXPECTED DEGREE OF BLOCK AT APPLIED CONCENTRATION” value on A-type [Kv1.4] was about 25%; at A-type [Kv4.2] it was about 13%. The “MEAN PREDICTED INHIBITION (Results)” value in the test on A-type K+ ion channel (300 μM applied, A-type K+ current, CA1 neuron, mean) is 19.0%. Besides, the “MEDIAN PREDICTED INHIBITION (Results)” value in the test on A-type K+ ion channel (300 μM applied, A-type K+ current, CA1 neuron, median) is 24.3%.

As for “Iberiotoxin (QFTDVDCSVSKECWSVCKDLFGVDRGKCMGKKCRCYQ; UniProt P24663 1-37, looked up)”, the “EXPECTED DEGREE OF BLOCK AT APPLIED CONCENTRATION” value in the test with BK [α + β1] is listed as 12%; with BK [α + β3], 77%; with BK [α + β4], “Insensitive”; with BK [α subunit only] it was 86%. For the same molecule, the “Effect on total predicted charge (spike normalised), pre- vs post-drug” value in the test with SK ion channel was “does not have a visible effect”; in the test on A-type K+ ion channel (100 nM IbTX, A-type K+ ion channel, 2000 ms prediction window, FIG. 12A), “does not have a visible effect”; with NaT ion channel, “does not have a visible effect”; with K ion channel, “does not have a visible effect”; in the test with BK ion channel (100 nM IbTX, BK ion channel, 2000 ms prediction window, FIG. 12A, 12D) it was “does have a noticeable effect”. The “MEAN PREDICTED INHIBITION (Results)” value with BK ion channel (100 nM applied, BK current, CA1 neuron, mean) is listed as 14.8%. In addition, the “MEDIAN PREDICTED INHIBITION (Results)” value with BK ion channel (100 nM applied, BK current, CA1 neuron, median) is on record as 12.1%.

On to `CCN(c1ccccc1)c1cc(=NC)n(C)c(C)n1.Cl` [ZD 7288], for which the “EXPECTED DEGREE OF BLOCK AT APPLIED CONCENTRATION” value is given as about 80% at HCN2 and about 63% at HCN1.
